Results reported in ChEMBL document CHEMBL5608251, “Virtual Screening and Molecular Docking: Discovering Novel METTL3 Inhibitors” (ACS Med Chem Lett, 2024).

Legend:
[1] = target: METTL3/METTL14 (Homo sapiens) (UniProt Q86U44+Q9HCE5); assay: Inhibition of METTL3/METTL14 (unknown origin) using SAM as substrate at 25 uM incubated for 360 mins by luminescence based assay relative to control; type: protein-complex assay
PC-9 = assay: Antiproliferative activity against human PC-9 cells assessed as inhibition of cell growth incubated for 72 hrs by CCK-8 assay; type: functional, cell-based; settings: PC-9, 72 h
NCI-H1975 = assay: Antiproliferative activity against human NCI-H1975 cells assessed as inhibition of cell growth incubated for 72 hrs by CCK-8 assay; type: functional, cell-based; settings: NCI-H1975, 72 h
METTL3/METTL14 = METTL3/METTL14 (Homo sapiens, UniProt Q86U44); assay: Inhibition of recombinant METTL3/METTL14 (unknown origin) by radioactivity based assay; type: protein-complex assay
Chain of METTL3/METTL14 (Q86U44 whole entry): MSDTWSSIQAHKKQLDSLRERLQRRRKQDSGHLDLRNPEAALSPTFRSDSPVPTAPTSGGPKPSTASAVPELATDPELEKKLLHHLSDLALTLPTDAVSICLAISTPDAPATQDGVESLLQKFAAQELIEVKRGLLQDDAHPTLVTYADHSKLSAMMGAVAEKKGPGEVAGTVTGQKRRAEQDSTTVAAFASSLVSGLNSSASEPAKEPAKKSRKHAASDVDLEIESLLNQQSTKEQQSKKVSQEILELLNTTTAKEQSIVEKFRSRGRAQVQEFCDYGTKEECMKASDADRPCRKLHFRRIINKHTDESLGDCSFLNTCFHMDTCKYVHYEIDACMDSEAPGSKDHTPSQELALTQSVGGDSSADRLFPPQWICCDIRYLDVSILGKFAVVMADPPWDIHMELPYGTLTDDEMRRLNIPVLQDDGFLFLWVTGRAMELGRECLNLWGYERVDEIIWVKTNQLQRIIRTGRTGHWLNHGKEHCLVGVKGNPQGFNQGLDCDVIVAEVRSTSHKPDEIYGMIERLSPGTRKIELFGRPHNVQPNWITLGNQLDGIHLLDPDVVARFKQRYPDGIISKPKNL
Chain of METTL3/METTL14 (Q9HCE5 whole entry, further chain): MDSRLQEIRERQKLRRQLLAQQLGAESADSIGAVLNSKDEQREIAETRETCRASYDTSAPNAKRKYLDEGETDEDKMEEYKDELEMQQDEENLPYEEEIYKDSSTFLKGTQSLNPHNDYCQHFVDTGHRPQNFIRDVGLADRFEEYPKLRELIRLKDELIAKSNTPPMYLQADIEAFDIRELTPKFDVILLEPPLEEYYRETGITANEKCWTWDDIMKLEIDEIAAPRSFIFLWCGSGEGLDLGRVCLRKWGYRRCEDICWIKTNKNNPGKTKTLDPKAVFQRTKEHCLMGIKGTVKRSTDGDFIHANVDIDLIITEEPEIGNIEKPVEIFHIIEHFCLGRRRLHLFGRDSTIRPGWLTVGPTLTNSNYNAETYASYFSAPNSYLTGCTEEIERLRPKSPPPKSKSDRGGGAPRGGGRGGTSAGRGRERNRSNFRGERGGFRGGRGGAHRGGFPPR

inhibition [1] [%]	SMILES	further results
46.2	CCOC(=O)CC(=O)CSc1nc2c(sc(=S)n2-c2ccc(C(=O)OCC)cc2)c2nc3ccccc3n12	IC50 (PC-9): 213 µM; IC50 (NCI-H1975): 197 µM
22.4	COc1ccc(NC(=O)CCn2ccc(=O)[nH]c2=O)cc1	
31.1	CNC(=O)Cn1c(CO)cnc1SCC(=O)Nc1ccc(C(C)=O)cc1	
35.3	O=C(CNC(=O)c1ccco1)N/N=C/c1cc(Br)cc(Br)c1OC(=O)c1cccc(F)c1	
38.9	CC(=O)Nc1ccc(C)cc1NC(=O)CCC1COc2ccccc2O1 (stereo not given)	
32.5	COc1ccc(-c2nc(C[S+]([O-])CC(=O)NCc3ccco3)c(C)o2)cc1 (stereo not given)	
65.6	O=C1c2ccc(Oc3cccc(Oc4ccc5c(c4)C(=O)N(c4ccc(O)cc4)C5=O)c3)cc2C(=O)N1c1ccc(O)cc1	IC50 (PC-9): 216 µM; IC50 (NCI-H1975): 180 µM
32.1	CCn1c(SCC(=O)Nc2ccc(C)c(F)c2)nc2c3cc(OC)ccc3n(C)c2c1=O	
	Nc1ncnc2c1ncn2[C@@H]1O[C@H](C[C@@H](N)CC[C@H](N)C(=O)O)[C@@H](O)[C@H]1O [SINEFUNGIN]	IC50 (METTL3/METTL14): 2.36 µM
6.31	O=C(CCCn1c(SCC(=O)Nc2ccc(F)cc2)nc2c(sc3ccccc32)c1=O)NCCO	
30.5	COc1ccc(NC(=O)CCn2ccc(=O)[nH]c2=O)c(O)c1	
25.1	COc1ccc(C(=O)Nc2cccc(OCc3cc(=O)n4ccc(C)cc4c3)c2)cc1OC	
24.1	COc1ccc(NC(=O)Cn2cc(C(=O)c3ccc(C)cc3)c(=O)c3cc(OC)c(OC)cc32)cc1OC	
3.39	CC(=O)c1ccc(NC(=O)CSc2ncc(CO)n2Cc2ccc(F)cc2)cc1	
36.3	O=C(CCSc1nc(-c2ccco2)cc(C(F)(F)F)n1)NCc1ccco1	
36.7	CCn1c(N2CCCC(C(=O)Nc3ccc4[nH]c(=O)[nH]c4c3)C2)cc(=O)n(C)c1=O (stereo not given)	
